How the values were obtained:
Assay in all cases: relative viability (nuclei count vs DMSO), 5 days (fraction); higher = more cells survive
[1] = compound: COC1=CC=C(C=C1)CN2C=CC3=C2C=C(C=C3)C(=O)NO + CS(=O)(=O)N1CCN(Cc2cc3nc(-c4cccc5[nH]ncc45)nc(N4CCOCC4)c3s2)CC1 [Pictilisib] (partner 1 µM)
Summary of the method: (§1)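 Lung cancer cell lines in 1536-well plates were dosed by pin tool the day after seeding, either with one drug alone or with a fixed anchor-drug dose plus five library-drug doses (not always all listed) in √10 steps. After 5 days, cells were fixed and their nuclei stained in one step (final 0.05% Triton X-100, 1% formaldehyde, 1 ug/ml Hoechst), then counted on 4× images. Relative viability is the nuclei count in treated wells divided by that in vehicle wells. Values are medians of duplicate plates.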

[2] = compound: COC1=CC=C(C=C1)CN2C=CC3=C2C=C(C=C3)C(=O)NO + NC(=O)Nc1cc(-c2cccc(F)c2)sc1C(=O)N[C@H]1CCCNC1 [AZD7762] (partner 0.2 µM)
Summary of the method: as §1

[3] = compound: COC1=CC=C(C=C1)CN2C=CC3=C2C=C(C=C3)C(=O)NO + CC(=O)Nc1cccc(-n2c(=O)n(C3CC3)c(=O)c3c(Nc4ccc(I)cc4F)n(C)c(=O)c(C)c32)c1 [Trametinib] (partner 0.02 µM)
Summary of the method: as §1

Veliparib + Phenformin = compound: C[C@]1(c2nc3c(C(N)=O)cccc3[nH]2)CCCN1 [Veliparib] + N=C(N)NC(=N)NCCc1ccccc1 [Phenformin] (partner 250 µM)
Summary of the method: as §1

Row | Cell Line | relative viability ([1]; first compound 0.08 µM) | relative viability ([1]; first compound 0.253 µM) | relative viability ([1]; first compound 0.8 µM) | relative viability ([1]; first compound 2.53 µM) | relative viability ([1]; first compound 8 µM) | relative viability ([2]; first compound 0.253 µM) | relative viability ([2]; first compound 0.8 µM) | relative viability ([2]; first compound 2.53 µM) | relative viability ([2]; first compound 8 µM) | relative viability ([3]; first compound 0.253 µM) | relative viability ([3]; first compound 0.8 µM) | relative viability ([3]; first compound 2.53 µM) | relative viability ([3]; first compound 8 µM) | relative viability (Veliparib + Phenformin; first compound 0.02 µM) | relative viability (Veliparib + Phenformin; first compound 0.06325 µM) | relative viability (Veliparib + Phenformin; first compound 0.2 µM) | relative viability (Veliparib + Phenformin; first compound 0.6325 µM) | relative viability (Veliparib + Phenformin; first compound 2 µM) | relative viability ([2]; first compound 0.08 µM) | relative viability ([3]; first compound 0.08 µM)
1 | EPLC-272H | 0.233 | 0.333 | 0.341 | 0.287 | 0.218 | 0.253 | 0.196 | 0.229 | 0.185 | 0.314 | 0.297 | 0.308 | 0.238 | 0.304 | 0.307 | 0.332 | 0.292 | 0.333 | – | –
2 | NCI-H1975 | 0.304 | 0.297 | 0.281 | 0.299 | 0.252 | 0.766 | 0.775 | 0.768 | 0.576 | 0.348 | 0.359 | 0.413 | 0.349 | 0.434 | 0.395 | 0.407 | 0.368 | 0.397 | 0.655 | 0.308
3 | NCI-H3122 | 0.571 | 0.629 | 0.652 | 0.577 | 0.518 | 1.02 | 1.04 | 0.999 | 0.819 | 0.13 | 0.225 | 0.217 | 0.222 | 0.335 | 0.345 | 0.384 | 0.357 | 0.387 | 0.977 | 0.276
4 | PC-14 | 0.388 | 0.629 | 0.766 | 0.688 | 0.699 | 0.276 | 0.393 | 0.315 | 0.381 | 0.687 | 0.753 | 0.722 | 0.734 | – | 0.526 | 0.647 | 0.59 | 0.435 | 0.263 | 0.741
5 | LU99A | – | 0.338 | 0.355 | 0.295 | 0.283 | 0.392 | 0.384 | 0.276 | 0.208 | 0.61 | 0.553 | 0.548 | 0.455 | 0.928 | 0.838 | 0.612 | 0.75 | 0.976 | – | –
6 | HCC-78 | – | 0.192 | 0.199 | 0.213 | 0.216 | 1.21 | 0.589 | 0.512 | 0.496 | 0.807 | 0.634 | 0.798 | 0.613 | 0.688 | 0.711 | 0.71 | 0.758 | 0.544 | 0.575 | 0.671
7 | NCI-H358 | – | 0.429 | 0.422 | 0.337 | 0.296 | 0.54 | 0.443 | 0.557 | 0.354 | 0.165 | 0.153 | 0.15 | 0.112 | 0.226 | 0.316 | 0.337 | 0.32 | 0.351 | – | –
8 | NCI-H1792 | 0.301 | 0.314 | 0.297 | 0.326 | 0.209 | 0.792 | 0.716 | 0.592 | 0.55 | 0.426 | 0.394 | 0.379 | 0.423 | 0.212 | 0.213 | 0.398 | 0.328 | 0.247 | 0.755 | 0.459
9 | NCI-H1651 | 0.572 | 0.427 | 0.606 | 0.65 | 0.452 | 0.437 | 0.394 | 0.406 | 0.369 | 0.917 | 0.867 | 0.787 | 0.828 | 0.286 | 0.34 | 0.379 | 0.279 | 0.316 | 0.414 | 0.798
10 | LOU-NH91 | 0.45 | 0.53 | 0.522 | 0.528 | 0.497 | 0.749 | 0.756 | 0.748 | 0.705 | 0.754 | 0.778 | 0.808 | 0.766 | 0.604 | 0.457 | 0.694 | 0.639 | 0.682 | – | –
11 | NCI-H1395 | 0.683 | 0.653 | 0.58 | 0.583 | 0.505 | 0.394 | 0.382 | 0.398 | 0.397 | 1.07 | 1.06 | 0.96 | 0.995 | 0.355 | 0.421 | 0.437 | 0.393 | 0.408 | – | –
12 | NCI-H650 | 0.901 | 0.895 | 0.856 | 0.861 | 0.829 | 0.686 | 0.816 | 1.1 | 0.763 | 0.981 | 1 | 1.03 | 1.04 | 0.439 | 0.385 | 0.405 | 0.408 | 0.412 | 0.944 | 1.07
13 | NCI-H1793 | 0.17 | 0.239 | 0.395 | 0.267 | 0.335 | 0.726 | 0.444 | 0.557 | 0.406 | 0.471 | 0.449 | 0.416 | 0.336 | 0.392 | 0.384 | 0.466 | 0.329 | 0.361 | – | –
14 | 201T | 0.687 | 0.716 | 0.752 | 0.725 | 0.683 | 0.676 | 0.528 | 0.642 | 0.586 | 0.733 | 0.773 | 0.743 | 0.701 | 0.411 | 0.356 | 0.463 | 0.457 | 0.462 | 0.561 | 0.769
15 | LK-2 | – | 0.524 | 0.598 | 0.507 | 0.488 | 0.439 | 0.45 | 0.352 | 0.375 | 0.694 | 0.658 | 0.686 | 0.646 | – | 0.516 | 0.594 | 0.543 | 0.481 | – | 0.534
16 | A-427 | – | 0.743 | 0.787 | 0.643 | 0.606 | – | 0.671 | 0.696 | 0.476 | – | 0.813 | 0.781 | 0.675 | – | 0.29 | 0.328 | 0.391 | 0.278 | 0.544 | 0.346
17 | LCLC-97TM1 | – | 0.283 | 0.205 | 0.227 | 0.123 | 0.267 | 0.205 | 0.162 | 0.188 | 0.201 | 0.228 | 0.19 | 0.204 | 0.428 | 0.435 | 0.439 | 0.428 | 0.499 | – | –
18 | HOP-62 | 0.249 | 0.885 | 0.988 | 0.908 | 0.396 | 0.691 | 0.72 | 0.554 | 0.484 | 0.399 | 0.371 | 0.391 | 0.375 | 0.514 | 0.61 | 0.61 | 0.613 | 0.723 | 0.358 | 0.362
19 | NCI-H1915 | 0.62 | 0.997 | 1.08 | 0.973 | 0.735 | 0.712 | 0.676 | 0.705 | 0.606 | 0.297 | 0.305 | 0.32 | 0.31 | 0.379 | 0.36 | 0.345 | 0.36 | 0.361 | 0.494 | 0.282
20 | CAL-12T | 0.244 | – | 0.527 | 0.377 | 0.283 | 0.537 | 0.647 | 0.675 | 0.589 | 0.347 | 0.33 | 0.335 | 0.301 | 0.436 | 0.617 | 0.537 | 0.54 | 0.53 | 0.572 | 0.387
21 | NCI-H1437 | 0.47 | 0.449 | 0.473 | 0.481 | 0.412 | 1.13 | 1.03 | 1.13 | 1.1 | 0.494 | 0.538 | 0.66 | 0.57 | 0.311 | 0.237 | 0.357 | 0.253 | 0.299 | 1.02 | 0.452
22 | HCC-44 | 0.547 | 0.746 | 0.616 | 0.568 | 0.547 | 1.01 | 0.99 | 1.01 | 1.04 | 1.02 | 0.996 | 1.04 | 1.06 | 0.157 | 0.144 | 0.188 | 0.17 | 0.135 | 0.938 | 1.04

Reference: the supplement of paper PMC10307832
